Paper PMC5218480 (PLoS ONE, 2017)

System: MV-4-11 cells
Assay: Gene expression microarray analysis (Affymetrix PrimeView) and GSEA
Assay type: cell-based, human
Parameters: RFU PODN (11730768_x_at) / Fold change /veh PODN (11730768_x_at) / RFU LINC00158 (11744669_a_at) / Fold change /veh LINC00158 (11744669_a_at) / RFU DUSP10 (11751237_a_at) / Fold change /veh DUSP10 (11751237_a_at) / RFU ID3 (11757404_x_at) / Fold change /veh ID3 (11757404_x_at) / RFU PLEKHG5 (11737974_s_at) / Fold change /veh PLEKHG5 (11737974_s_at) / RFU LRRC4B (11730491_at) / Fold change /veh LRRC4B (11730491_at) / RFU GIMAP4 (11747438_a_at) / Fold change /veh GIMAP4 (11747438_a_at) / RFU KRT8 (11758183_x_at) / Fold change /veh KRT8 (11758183_x_at) / RFU CNN1 (11734310_a_at) / Fold change /veh CNN1 (11734310_a_at) / RFU VPS37D (11726825_at) / Fold change /veh VPS37D (11726825_at) / RFU C10orf10 (11716522_x_at) / Fold change /veh C10orf10 (11716522_x_at) / RFU KIR2DL2 /// KIR2DL4 /// KIR2DL5A /// KIR2DL5B /// KIR2DS1 /// KIR2DS2 /// KIR2DS3 /// KIR2DS4 /// KIR3DL3 /// KIR3DL3 /// KIR3DS1 (11738374_at) / Fold change /veh KIR2DL2 /// KIR2DL4 /// KIR2DL5A /// KIR2DL5B /// KIR2DS1 /// KIR2DS2 /// KIR2DS3 /// KIR2DS4 /// KIR3DL3 /// KIR3DL3 /// KIR3DS1 (11738374_at) / RFU C1QL1 (11718748_at) / Fold change /veh C1QL1 (11718748_at) / RFU TMPRSS4 (11747572_a_at) / Fold change /veh TMPRSS4 (11747572_a_at) / RFU HAMP (11756126_x_at) / Fold change /veh HAMP (11756126_x_at) / RFU RNFT2 (11725882_a_at) / Fold change /veh RNFT2 (11725882_a_at) / RFU NR4A2 (11747474_a_at) / Fold change /veh NR4A2 (11747474_a_at) / RFU ABCC12 (11746883_a_at) / Fold change /veh ABCC12 (11746883_a_at) / RFU TMEM136 (11760407_x_at) / Fold change /veh TMEM136 (11760407_x_at) / RFU CLDN22 /// WWC2 (11732394_at) / Fold change /veh CLDN22 /// WWC2 (11732394_at) / RFU HLA-DPB1 (11760878_x_at) / Fold change /veh HLA-DPB1 (11760878_x_at) / RFU SPINT1 (11716480_a_at) / Fold change /veh SPINT1 (11716480_a_at) / RFU GAP43 (11754022_s_at) / Fold change /veh GAP43 (11754022_s_at) / RFU A4GNT (11735810_at) / Fold change /veh A4GNT (11735810_at) / RFU PRB3 (11715151_x_at) / Fold change /veh PRB3 (11715151_x_at) / RFU TUBB4B (11761932_at) / Fold change /veh TUBB4B (11761932_at) / RFU CAPN14 (11732068_a_at) / Fold change /veh CAPN14 (11732068_a_at) / RFU TMCC2 (11721928_a_at) / Fold change /veh TMCC2 (11721928_a_at) / RFU IRGQ (11745062_a_at) / Fold change /veh IRGQ (11745062_a_at) / RFU FAM174B (11720279_a_at) / Fold change /veh FAM174B (11720279_a_at) / RFU TMPRSS4 (11748680_a_at) / Fold change /veh TMPRSS4 (11748680_a_at) / RFU FAM212B (11763350_a_at) / Fold change /veh FAM212B (11763350_a_at) / RFU PLEKHG5 (11743358_a_at) / Fold change /veh PLEKHG5 (11743358_a_at) / RFU ZSCAN30 (11745921_a_at) / Fold change /veh ZSCAN30 (11745921_a_at) / RFU CMKLR1 (11741424_a_at) / Fold change /veh CMKLR1 (11741424_a_at) / RFU LOC101060620 /// MAPK8IP1 (11723275_at) / Fold change /veh LOC101060620 /// MAPK8IP1 (11723275_at) / RFU SPTSSB (11747773_x_at) / Fold change /veh SPTSSB (11747773_x_at) / RFU PRSS12 (11739890_at) / Fold change /veh PRSS12 (11739890_at) / RFU BIN1 (11741810_x_at) / Fold change /veh BIN1 (11741810_x_at) / RFU WNT11 (11732464_a_at) / Fold change /veh WNT11 (11732464_a_at) / RFU C10orf10 (11716521_a_at) / Fold change /veh C10orf10 (11716521_a_at) / RFU C5orf56 (11738089_at) / Fold change /veh C5orf56 (11738089_at) / RFU CYB561 (11721691_x_at) / Fold change /veh CYB561 (11721691_x_at) / RFU ANKRD19P (11752326_a_at) / Fold change /veh ANKRD19P (11752326_a_at) / RFU OR2T12 /// OR2T33 /// OR2T8 (11738714_s_at) / Fold change /veh OR2T12 /// OR2T33 /// OR2T8 (11738714_s_at) / RFU VCAN (11748164_a_at) / Fold change /veh VCAN (11748164_a_at) / RFU JSRP1 (11732532_at) / Fold change /veh JSRP1 (11732532_at) / RFU KRTAP10-11 (11738290_x_at) / Fold change /veh KRTAP10-11 (11738290_x_at) / RFU MYO3A (11730013_a_at) / Fold change /veh MYO3A (11730013_a_at) / RFU EBF3 (11725865_a_at) / Fold change /veh EBF3 (11725865_a_at) / RFU CAMK2N1 (11719241_x_at) / Fold change /veh CAMK2N1 (11719241_x_at) / RFU C5orf56 (11738088_a_at) / Fold change /veh C5orf56 (11738088_a_at) / RFU OLFML3 (11715873_a_at) / Fold change /veh OLFML3 (11715873_a_at) / RFU LOC100653217 /// NTM (11731650_a_at) / Fold change /veh LOC100653217 /// NTM (11731650_a_at) / RFU MAPK11 (11762145_a_at) / Fold change /veh MAPK11 (11762145_a_at) / RFU FIZ1 (11724087_x_at) / Fold change /veh FIZ1 (11724087_x_at) / RFU OASL (11726364_x_at) / Fold change /veh OASL (11726364_x_at) / RFU SOX15 (11748057_x_at) / Fold change /veh SOX15 (11748057_x_at) / RFU CD79A (11719716_a_at) / Fold change /veh CD79A (11719716_a_at) / RFU HIST1H1D (11736915_at) / Fold change /veh HIST1H1D (11736915_at) / RFU CASKIN2 (11723855_a_at) / Fold change /veh CASKIN2 (11723855_a_at) / RFU LOC730098 (11760151_x_at) / Fold change /veh LOC730098 (11760151_x_at) / RFU OR4N2 (11742367_at) / Fold change /veh OR4N2 (11742367_at) / RFU PRRT2 (11749266_a_at) / Fold change /veh PRRT2 (11749266_a_at) / RFU SNX32 (11753110_a_at) / Fold change /veh SNX32 (11753110_a_at) / RFU CDHR5 (11726645_a_at) / Fold change /veh CDHR5 (11726645_a_at) / RFU RCAN1 (11760418_a_at) / Fold change /veh RCAN1 (11760418_a_at) / RFU FAM167A (11723789_a_at) / Fold change /veh FAM167A (11723789_a_at) / RFU FAM26E (11764081_at) / Fold change /veh FAM26E (11764081_at) / RFU ISYNA1 (11749810_s_at) / Fold change /veh ISYNA1 (11749810_s_at) / RFU ACY1 (11761880_at) / Fold change /veh ACY1 (11761880_at) / RFU 11764098_at / Fold change /veh 11764098_at / RFU SAMD14 (11745864_x_at) / Fold change /veh SAMD14 (11745864_x_at) / RFU NPB (11741838_a_at) / Fold change /veh NPB (11741838_a_at) / RFU TMPRSS6 (11731388_a_at) / Fold change /veh TMPRSS6 (11731388_a_at) / RFU KRTAP10-2 (11738614_at) / Fold change /veh KRTAP10-2 (11738614_at) / RFU ARHGAP8 /// PRR5-ARHGAP8 (11727945_x_at) / Fold change /veh ARHGAP8 /// PRR5-ARHGAP8 (11727945_x_at) / RFU KRTAP5-7 /// NADSYN1 (11734609_at) / Fold change /veh KRTAP5-7 /// NADSYN1 (11734609_at) / RFU RASL12 (11751679_a_at) / Fold change /veh RASL12 (11751679_a_at) / RFU CDKN2B (11736163_a_at) / Fold change /veh CDKN2B (11736163_a_at) / RFU PRF1 (11729649_at) / Fold change /veh PRF1 (11729649_at) / RFU, ZNF638 /// ZNF638-IT1 / Fold change vs veh, ZNF638 /// ZNF638-IT1 / RFU, PANK3 / Fold change vs veh, PANK3 / RFU, SH3YL1 / Fold change vs veh, SH3YL1 / RFU, ZEB2 / Fold change vs veh, ZEB2 / RFU, NRIP1 / Fold change vs veh, NRIP1 / RFU, PTTG1IP / Fold change vs veh, PTTG1IP / RFU, CAPN2 / Fold change vs veh, CAPN2 / RFU, MED14 / Fold change vs veh, MED14 / RFU, SNORA58 / Fold change vs veh, SNORA58 / RFU, C1orf63 / Fold change vs veh, C1orf63 / RFU, LRRFIP1 / Fold change vs veh, LRRFIP1 / RFU, NDUFAF7 / Fold change vs veh, NDUFAF7 / RFU, SLC12A2 / Fold change vs veh, SLC12A2 / RFU, IBTK / Fold change vs veh, IBTK / RFU, ESF1 / Fold change vs veh, ESF1 / Fold change vs veh, TMEM50B / RFU, TAOK1 / Fold change vs veh, TAOK1 / RFU, ACBD3 / Fold change vs veh, ACBD3 / RFU, TMA16 / Fold change vs veh, TMA16 / RFU, RWDD3 / Fold change vs veh, RWDD3 / RFU, BCAT1 / Fold change vs veh, BCAT1 / RFU, EDEM3 / Fold change vs veh, EDEM3 / RFU, TMEM33 / Fold change vs veh, TMEM33 / RFU, WDR75 / Fold change vs veh, WDR75 / RFU, AHCTF1 / Fold change vs veh, AHCTF1 / RFU, TFRC / Fold change vs veh, TFRC / RFU, ZDHHC17 / Fold change vs veh, ZDHHC17 / RFU, NOM1 / Fold change vs veh, NOM1 / RFU, ARL8B / Fold change vs veh, ARL8B / RFU, ZBTB11 / Fold change vs veh, ZBTB11 / RFU, TAMM41 / Fold change vs veh, TAMM41 / RFU, KIAA1704 /// LOC100996395 / Fold change vs veh, KIAA1704 /// LOC100996395 / RFU, ING1 / Fold change vs veh, ING1 / RFU, TRMT61B / Fold change vs veh, TRMT61B / RFU, FUBP3 / Fold change vs veh, FUBP3 / RFU, TP53 / Fold change vs veh, TP53 / RFU, TNKS2 / Fold change vs veh, TNKS2 / RFU, ZFP14 / Fold change vs veh, ZFP14 / RFU, ACTR2 / Fold change vs veh, ACTR2 / RFU, PPP3R1 / Fold change vs veh, PPP3R1 / RFU, PIK3R1 / Fold change vs veh, PIK3R1 / RFU, HNRNPA1 / Fold change vs veh, HNRNPA1 / RFU, RNF170 / Fold change vs veh, RNF170 / RFU, ZNF28 / Fold change vs veh, ZNF28 / RFU, RNGTT / Fold change vs veh, RNGTT / RFU, OGT / Fold change vs veh, OGT / RFU, BRD1 / Fold change vs veh, BRD1 / RFU, MARS / Fold change vs veh, MARS / RFU, ZNF655 / Fold change vs veh, ZNF655 / RFU, FAHD1 / Fold change vs veh, FAHD1 / RFU, BDP1 / Fold change vs veh, BDP1 / RFU, LRRCC1 / Fold change vs veh, LRRCC1 / RFU, ARID1A / Fold change vs veh, ARID1A / RFU, ZNF146 / Fold change vs veh, ZNF146 / RFU, ZNF330 / Fold change vs veh, ZNF330 / RFU, GPN3 / Fold change vs veh, GPN3 / RFU, C9orf123 / Fold change vs veh, C9orf123 / RFU, N4BP2L2 / Fold change vs veh, N4BP2L2 / RFU, ARFIP1 / Fold change vs veh, ARFIP1 / RFU, FAM179B / Fold change vs veh, FAM179B / RFU, BCL10 / Fold change vs veh, BCL10 / RFU, UHRF1BP1L / Fold change vs veh, UHRF1BP1L / RFU, BET1 / Fold change vs veh, BET1 / RFU, CNOT2 / Fold change vs veh, CNOT2 / RFU, ZNF268 / Fold change vs veh, ZNF268 / Fold change vs veh, ZNF507 / RFU, DGCR2 / Fold change vs veh, DGCR2 / RFU, WDSUB1 / Fold change vs veh, WDSUB1 / Fold change vs veh, HSP90B1 /// MIR3652 / RFU, ADSS / Fold change vs veh, ADSS / RFU, GK / Fold change vs veh, GK / RFU, ZNF148 / Fold change vs veh, ZNF148 / RFU, TAF9 / Fold change vs veh, TAF9 / RFU, SLC1A5 / Fold change vs veh, SLC1A5 / RFU, SLMO2 / Fold change vs veh, SLMO2 / RFU, ABCC4 / Fold change vs veh, ABCC4 / RFU, LOC101060439 /// RAP1B / Fold change vs veh, LOC101060439 /// RAP1B / RFU, RFX7 / Fold change vs veh, RFX7 / RFU, GTPBP10 / Fold change vs veh, GTPBP10 / RFU, CNEP1R1 / Fold change vs veh, CNEP1R1 / RFU, BIVM-ERCC5 /// ERCC5 / Fold change vs veh, BIVM-ERCC5 /// ERCC5 / RFU, ILF3 / Fold change vs veh, ILF3 / RFU 11762660_at / Fold change /veh 11762660_at / RFU VCAN (11757783_s_at) / Fold change /veh VCAN (11757783_s_at) / RFU DDX43 (11728927_at) / Fold change /veh DDX43 (11728927_at) / RFU KRT8 (11758188_x_at) / Fold change /veh KRT8 (11758188_x_at) / RFU NKD1 (11759106_at) / Fold change /veh NKD1 (11759106_at) / RFU SRD5A1 (11742802_a_at) / Fold change /veh SRD5A1 (11742802_a_at) / RFU TPSAB1 /// TPSB2 (11721975_s_at) / Fold change /veh TPSAB1 /// TPSB2 (11721975_s_at) / RFU GSTM3 (11746129_a_at) / Fold change /veh GSTM3 (11746129_a_at) / RFU IL23R (11737362_x_at) / Fold change /veh IL23R (11737362_x_at) / RFU TMEM51 (11727254_a_at) / Fold change /veh TMEM51 (11727254_a_at) / RFU PIWIL2 (11732686_x_at) / Fold change /veh PIWIL2 (11732686_x_at) / RFU ORM1 (11744905_x_at) / Fold change /veh ORM1 (11744905_x_at) / RFU CCDC152 (11743942_at) / Fold change /veh CCDC152 (11743942_at) / RFU ECM1 (11717891_a_at) / Fold change /veh ECM1 (11717891_a_at) / RFU IL23R (11748794_a_at) / Fold change /veh IL23R (11748794_a_at) / RFU TNFAIP8L3 (11732012_x_at) / Fold change /veh TNFAIP8L3 (11732012_x_at) / RFU MBOAT4 (11741988_at) / Fold change /veh MBOAT4 (11741988_at) / RFU 11764193_at / Fold change /veh 11764193_at / RFU TMEM53 (11763286_at) / Fold change /veh TMEM53 (11763286_at) / RFU MAGEB2 (11727129_at) / Fold change /veh MAGEB2 (11727129_at) / RFU TMEM200A (11744735_a_at) / Fold change /veh TMEM200A (11744735_a_at) / RFU CCDC152 (11751479_a_at) / Fold change /veh CCDC152 (11751479_a_at) / RFU FAM211A (11726209_a_at) / Fold change /veh FAM211A (11726209_a_at) / RFU RGS16 (11746705_a_at) / Fold change /veh RGS16 (11746705_a_at) / RFU VCAN (11755009_s_at) / Fold change /veh VCAN (11755009_s_at) / RFU RHOB (11743442_s_at) / Fold change /veh RHOB (11743442_s_at) / RFU RGS16 (11720943_a_at) / Fold change /veh RGS16 (11720943_a_at) / RFU RGS16 (11720944_at) / Fold change /veh RGS16 (11720944_at) / RFU, VPS4B / Fold change vs veh, VPS4B / RFU, CREB1 / Fold change vs veh, CREB1 / RFU, DNAJC13 / Fold change vs veh, DNAJC13 / RFU, GNAQ / Fold change vs veh, GNAQ / RFU, CDK5R1 / Fold change vs veh, CDK5R1 / RFU, ZRANB3 / Fold change vs veh, ZRANB3 / RFU, CUL4A / Fold change vs veh, CUL4A / RFU, CCNY / Fold change vs veh, CCNY / RFU, UFL1 / Fold change vs veh, UFL1 / RFU, COG3 / Fold change vs veh, COG3 / RFU, DIAPH2 / Fold change vs veh, DIAPH2 / RFU, SKA2 / Fold change vs veh, SKA2 / RFU, AFF3 / Fold change vs veh, AFF3 / RFU, LMF1 / Fold change vs veh, LMF1 / RFU, IPO11 / Fold change vs veh, IPO11 / RFU, DFFB / Fold change vs veh, DFFB / RFU, FOXP1 / Fold change vs veh, FOXP1 / RFU, CARD8 / Fold change vs veh, CARD8 / RFU, STRN3 / Fold change vs veh, STRN3 / RFU, ADK / Fold change vs veh, ADK / RFU, RASSF2 / Fold change vs veh, RASSF2 / RFU, WIPF1 / Fold change vs veh, WIPF1 / RFU, LARP1B / Fold change vs veh, LARP1B / RFU, RASA1 / Fold change vs veh, RASA1 / RFU, RB1 / Fold change vs veh, RB1 / RFU, PPFIA1 / Fold change vs veh, PPFIA1 / RFU, MAT2A / Fold change vs veh, MAT2A / RFU, CCT5 / Fold change vs veh, CCT5 / RFU, WDR92 / Fold change vs veh, WDR92 / RFU, CUX1 / Fold change vs veh, CUX1 / RFU, TTC7A / Fold change vs veh, TTC7A / RFU, TMEM135 / Fold change vs veh, TMEM135 / RFU, DEPTOR / Fold change vs veh, DEPTOR / RFU, CPM / Fold change vs veh, CPM / RFU, DNAJB6 / Fold change vs veh, DNAJB6 / RFU, CACNA2D3 / Fold change vs veh, CACNA2D3 / RFU, DTX4 / Fold change vs veh, DTX4 / RFU, TFCP2 / Fold change vs veh, TFCP2 / RFU, GMCL1 /// GMCL1P1 / Fold change vs veh, GMCL1 /// GMCL1P1 / RFU, AEBP2 / Fold change vs veh, AEBP2 / RFU, SNHG1 /// SNORD22 /// SNORD25 /// SNORD26 /// SNORD27 /// SNORD28 /// SNORD29 /// SNORD31 / Fold change vs veh, SNHG1 /// SNORD22 /// SNORD25 /// SNORD26 /// SNORD27 /// SNORD28 /// SNORD29 /// SNORD31 / Fold change (Aza/veh), C12orf56 (ProbeSet 11735607_a_at) / Fold change (ACY-1035/veh), C12orf56 (ProbeSet 11735607_a_at) / Fold change (Aza/veh), FGFR1OP (ProbeSet 11751329_s_at) / Fold change (ACY-1035/veh), FGFR1OP (ProbeSet 11751329_s_at) / Fold change (Aza/veh), VPS36 (ProbeSet 11739960_a_at) / Fold change (ACY-1035/veh), VPS36 (ProbeSet 11739960_a_at) / RFU SYPL1 (11715823_x_at) / Fold change /veh SYPL1 (11715823_x_at) / RFU IGFBP7 (11715501_s_at) / Fold change /veh IGFBP7 (11715501_s_at) / RFU REEP3 (11722064_at) / Fold change /veh REEP3 (11722064_at) / RFU IGLL1 (11728026_x_at) / Fold change /veh IGLL1 (11728026_x_at): dose or concentration left out as unconfirmed
Conditions: ProbeSet 11724877_a_at; LIST D

Nc1ncn([C@@H]2O[C@H](CO)[C@@H](O)[C@H]2O)c(=O)n1 [azacitidine]
RFU, AEBP2: 23.96 RFU
